These molecules were tested against T1, human CB2R (Homo sapiens, UniProt P34972) (assay: CB2R mediated modulation of cAMP synthesis). Settings: CHO cells expressing human CB2R; inhibition of forskolin-stimulated cAMP synthesis; read-out: CB2 EC50.
T1 construct: host or cells: CHO cells
Type: cell-based
Method: B. CB2R Mediated Modulation of cAMP Synthesis:
Compounds of the invention are evaluated for their CB2 agonist or inverse agonistic activity in accordance with the following experimental method.
(§1) CHO cells expressing human CB2R (Euroscreen) are plated at a density of 5000 cells per well in 384 well plates and incubated overnight at 37° C. After removing the media, the cells are treated with test compounds diluted in stimulation buffer containing 1 mM IBMX, 0.25% BSA and 10 uM Forskolin. The assay is incubated for 30 minutes at 37° C. Cells are lysed and the cAMP concentration is measured using DiscoverX-XS cAMP kit, following the manufacturer's protocol. In this setting, agonists will decrease forskolin induced production of cAMP while inverse agonists will further increase forskolin induced production of cAMP. EC50 of agonists are calculated as follows. The maximal amount of cAMP produced by forskolin compared to the level of cAMP inhibited by 1 uM CP55940 is defined as 100%. […] Data is analyzed using a four-parameter logistic model. (Model 205 of XLfit 4.0).

T1 sequence (P34972 whole entry): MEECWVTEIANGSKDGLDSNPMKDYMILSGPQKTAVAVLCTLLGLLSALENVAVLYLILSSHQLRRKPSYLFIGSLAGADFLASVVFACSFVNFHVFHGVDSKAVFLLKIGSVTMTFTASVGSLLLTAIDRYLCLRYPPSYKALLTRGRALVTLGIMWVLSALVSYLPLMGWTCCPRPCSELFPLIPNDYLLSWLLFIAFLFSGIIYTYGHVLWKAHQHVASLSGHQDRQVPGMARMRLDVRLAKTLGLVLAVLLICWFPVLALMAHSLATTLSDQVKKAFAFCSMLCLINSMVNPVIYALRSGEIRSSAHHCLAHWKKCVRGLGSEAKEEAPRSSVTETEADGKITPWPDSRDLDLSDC

Which EC50 does the source give for `CC(C)(CO)c1cc(NC(=O)C(C)(C)S(=O)(=O)CC2CCOCC2)on1` here?
The EC50 was 39 nM.

For `CC(C)(CO)c1cc(NC(=O)C(C)(C)S(=O)(=O)CCCC(F)(F)F)on1`, which EC50 is on record?
Its EC50 is 15 nM.

`COc1ccc(-c2nnc(NC(=O)C(C)(C)S(=O)(=O)CC3(C)CCOCC3)[nH]2)cc1` was tested. Which EC50 did it give?
Its EC50 is 186 nM.

`CC(C)(C(=O)Nc1nnc(-c2ccc(OC(F)(F)F)cc2)[nH]1)S(=O)(=O)CC1CCOCC1` was tested. Which EC50 did it give?
Its EC50 is 337 nM.

Which EC50 does the source give for `CC(C)(C(=O)Nc1nnc(-c2ccc(OC(F)(F)F)cc2)[nH]1)S(=O)(=O)C1CCOCC1` here?
The EC50 was 194 nM.

`CC(C)(CO)c1cc(NC(=O)C(C)(C)S(=O)(=O)c2cccc(F)c2F)on1` was tested. Which EC50 did it give?
The EC50 was 172 nM.

Which EC50 does the source give for `CCOc1ccc(-c2nnc(NC(=O)C(C)(C)S(=O)(=O)C3CCOCC3)[nH]2)cc1` here?
The EC50 was 208 nM.

For `CC(C)(CO)c1cc(NC(=O)C(C)(C)S(=O)(=O)CC2CCOCC2)no1`, which EC50 is on record?
The EC50 was 208 nM.

With `CC(C)(C(=O)Nc1cc(C2(CO)CC2)no1)S(=O)(=O)C1CCOCC1` as the molecule, how does the EC50 read?
Its EC50 is 117 nM.

How did the EC50 turn out when `COCC(C)(C)c1cc(NC(=O)C(C)(C)S(=O)(=O)CC2CCOCC2)no1` was run?
The EC50 was 137 nM.

For `CC(C)(C(=O)Nc1cc(C2(CO)CC2)no1)S(=O)(=O)CCCC(F)(F)F`, which EC50 is on record?
Its EC50 is 247 nM.

For `COCC(C)(C)c1cc(NC(=O)C(C)(C)S(=O)(=O)CC2CC2)on1`, which EC50 is on record?
Its EC50 is 120 nM.

`CC(C)(CO)c1cc(NC(=O)C2(S(=O)(=O)C3CCOCC3)CCC2)on1` was tested. Which EC50 did it give?
Its EC50 is 212 nM.

`CC(C)(C(=O)Nc1nc(-c2cccc(O)c2)n[nH]1)S(=O)(=O)CC1CC1` was tested. Which EC50 did it give?
Its EC50 is 283 nM.

With `CC(C)(C(=O)Nc1nc(-c2cccc(O)c2)n[nH]1)S(=O)(=O)C1CCOCC1` as the molecule, how does the EC50 read?
Its EC50 is 130 nM.

`CC[C@H](C)S(=O)(=O)C(C)(C)C(=O)Nc1cc(C(C)(C)CO)no1` was tested. Which EC50 did it give?
The EC50 was 118 nM.

What follows are molecules tested against T2, human CB1R (Homo sapiens, UniProt P21554) (assay: CB1R mediated modulation of cAMP synthesis). Settings: CHO cells expressing human CB1R; inhibition of forskolin-stimulated cAMP synthesis; read-out: CB1 EC50.
T2 construct: host or cells: CHO cells
T2 sequence (P21554 whole entry): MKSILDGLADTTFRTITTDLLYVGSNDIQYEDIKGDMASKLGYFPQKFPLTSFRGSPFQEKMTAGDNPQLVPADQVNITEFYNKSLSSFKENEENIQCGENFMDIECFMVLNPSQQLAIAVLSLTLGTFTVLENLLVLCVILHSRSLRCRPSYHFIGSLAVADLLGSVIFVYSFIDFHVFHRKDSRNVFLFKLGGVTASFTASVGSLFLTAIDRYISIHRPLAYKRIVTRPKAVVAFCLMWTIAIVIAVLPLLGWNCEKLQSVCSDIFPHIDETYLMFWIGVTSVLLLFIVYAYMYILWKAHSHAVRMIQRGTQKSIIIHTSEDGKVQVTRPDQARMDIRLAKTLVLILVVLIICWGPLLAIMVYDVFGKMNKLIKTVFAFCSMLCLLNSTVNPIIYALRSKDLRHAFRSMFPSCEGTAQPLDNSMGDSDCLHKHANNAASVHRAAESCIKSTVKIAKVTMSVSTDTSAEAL
Type: cell-based
Method: C. CB1R Mediated Modulation of cAMP Synthesis:
Compounds of the invention are evaluated for their CB1 agonist or inverse agonistic activity in accordance with the following experimental method.
as §1, with “CB1R” for “CB2R”

Which EC50 does the source give for `CC(C)(CO)c1cc(NC(=O)C(C)(C)S(=O)(=O)CC2CCOCC2)on1` here?
Its EC50 is greater than 50000 nM.

`CC(C)(CO)c1cc(NC(=O)C(C)(C)S(=O)(=O)CCCC(F)(F)F)on1` was tested. Which EC50 did it give?
The EC50 was greater than 20000 nM.

With `COc1ccc(-c2nnc(NC(=O)C(C)(C)S(=O)(=O)CC3(C)CCOCC3)[nH]2)cc1` as the molecule, how does the EC50 read?
Its EC50 is greater than 20000 nM.

With `CC(C)(C(=O)Nc1nnc(-c2ccc(OC(F)(F)F)cc2)[nH]1)S(=O)(=O)CC1CCOCC1` as the molecule, how does the EC50 read?
Its EC50 is greater than 20000 nM.

Which EC50 does the source give for `CC(C)(C(=O)Nc1nnc(-c2ccc(OC(F)(F)F)cc2)[nH]1)S(=O)(=O)C1CCOCC1` here?
The EC50 was greater than 20000 nM.

With `CC(C)(CO)c1cc(NC(=O)C(C)(C)S(=O)(=O)c2cccc(F)c2F)on1` as the molecule, how does the EC50 read?
The EC50 was greater than 20000 nM.

How did the EC50 turn out when `CCOc1ccc(-c2nnc(NC(=O)C(C)(C)S(=O)(=O)C3CCOCC3)[nH]2)cc1` was run?
Its EC50 is greater than 50000 nM.

`CC(C)(CO)c1cc(NC(=O)C(C)(C)S(=O)(=O)CC2CCOCC2)no1` was tested. Which EC50 did it give?
Its EC50 is greater than 50000 nM.

With `CC(C)(C(=O)Nc1cc(C2(CO)CC2)no1)S(=O)(=O)C1CCOCC1` as the molecule, how does the EC50 read?
Its EC50 is greater than 50000 nM.

For `COCC(C)(C)c1cc(NC(=O)C(C)(C)S(=O)(=O)CC2CCOCC2)no1`, which EC50 is on record?
The EC50 was greater than 20000 nM.

`CC(C)(C(=O)Nc1cc(C2(CO)CC2)no1)S(=O)(=O)CCCC(F)(F)F` was tested. Which EC50 did it give?
Its EC50 is greater than 50000 nM.

Which EC50 does the source give for `COCC(C)(C)c1cc(NC(=O)C(C)(C)S(=O)(=O)CC2CC2)on1` here?
Its EC50 is greater than 50000 nM.

For `CC(C)(CO)c1cc(NC(=O)C2(S(=O)(=O)C3CCOCC3)CCC2)on1`, which EC50 is on record?
The EC50 was greater than 50000 nM.

With `CC(C)(C(=O)Nc1nc(-c2cccc(O)c2)n[nH]1)S(=O)(=O)CC1CC1` as the molecule, how does the EC50 read?
Its EC50 is greater than 50000 nM.

Which EC50 does the source give for `CC(C)(C(=O)Nc1nc(-c2cccc(O)c2)n[nH]1)S(=O)(=O)C1CCOCC1` here?
The EC50 was greater than 50000 nM.

For `CC[C@H](C)S(=O)(=O)C(C)(C)C(=O)Nc1cc(C(C)(C)CO)no1`, which EC50 is on record?
The EC50 was greater than 50000 nM.

Source: US8048899B2, “Compounds which selectively modulate the CB2 receptor” (Boehringer Ingelheim International GmbH, priority 2008, dated 2011)
